Test results reported in patent publication US4731360A, “Acylcarnitines as absorption-enhancing agents for drug delivery through mucous membranes of the nasal, buccal, sublingual and vaginal compartments” (Merck & Co., Inc., priority 1985, dated 1988).
Each block holds one compound with its values, some of them ahead of it.

How the values were obtained:
[1] = test system: mucous membranes of the nasal, buccal, sublingual and vaginal compartments; test: Promotion of drug absorption through mucous membranes; details: without acyl ester
[2] = test system: mucosal cells; details: studies of surfactants; cited from earlier work
[3] = Percent bioavailability of α-methyldopa after nasal, oral (buccal) or vaginal administration to rats, with or without palmitoylcarnitine chloride; blood levels by HPLC, against intravenous administration; assay type: in vivo; details: aqueous formulation, mean ± SD, n = 3, vs intravenous; for Percent α-methyldopa Bioavailability in the Presence (+) of Palmitoylcarnitine: with 1.0 mg palmitoylcarnitine chloride; for Percent α-methyldopa Bioavailability in the Absence (-) of Palmitoylcarnitine: without palmitoylcarnitine
Experimental: Effect of palmitoylcarnitine chloride on the nasal, buccal and vaginal absorption of α-methyldopa (amino acid, antihypertensive). Experiments were performed with rats wherein each animal received an aqueous formulation administered to the nasal, oral or vaginal cavities. The formulations contained the indicated amount of α-methyldopa in the presence or absence of 1.0 mg palmitoylcarnitine chloride. Procedures were tested to eliminate the possibility of cross-contamination between the nasal and oral cavities. Blood levels of α-methyldopa were determined by high performance liquid chromatography and the amount of drug absorbed (percent bioavailability) calculated against intravenous α-methyldopa administration. | Values represent the mean ± SD for n = 3 determinations.

[4] = nasal cavity, α-methyldopa 0.5 mg
[5] = oral cavity (buccal), α-methyldopa 2.5 mg
[6] = vaginal cavity, α-methyldopa 2.5 mg

Structure (SMILES): C[N+](C)(C)CC(O)CC(=O)[O-] (centres unmarked) [carnitine]
- absorption promoting effect of carnitine alone [1]: no effect

Structure (SMILES): CCCCCCCCCCCCOS(=O)(=O)[O-].[Na+] [sodium lauryl sulfate]
- cellular damage associated with surfactant activity [2]: generally associated with some degree of cellular damage

- Percent α-methyldopa Bioavailability in the Presence (+) of Palmitoylcarnitine [3, 4]: 52 ± 16.2%
- Percent α-methyldopa Bioavailability in the Absence (-) of Palmitoylcarnitine [3, 4]: 7 ± 1.1%
- Percent α-methyldopa Bioavailability in the Presence (+) of Palmitoylcarnitine [3, 5]: 10 ± 6.0%
- Percent α-methyldopa Bioavailability in the Absence (-) of Palmitoylcarnitine [3, 5]: 3 ± 0.7%
- Percent α-methyldopa Bioavailability in the Presence (+) of Palmitoylcarnitine [3, 6]: 100 ± 55.0%
- Percent α-methyldopa Bioavailability in the Absence (-) of Palmitoylcarnitine [3, 6]: 2 ± 1.0%
Structure (SMILES): C[C@](N)(Cc1ccc(O)c(O)c1)C(=O)O [α-methyldopa]
